We go through four compounds from US20210046082A1, “CRYSTALLINE FORMS OF QUINOLINE ANALOGS AND SALTS THEREOF, COMPOSITIONS, AND THEIR METHODS FOR USE” (Senhwa Biosciences, Inc., priority 2019, published 2021).

Data set [1] can be described thus: Polymorph conversion on heating in MeOH/PPW (3:1) under neutral conditions. Type of data set: physicochemical. The following applies: about 60-65° C., 6 hours instead of 4. Here is the method: In the procedure discussed in Example 1, the wet cake obtained in the Neutralization/Polymorph Formation step was vacuum dried at no more than 65° C. Then the dried Compound I (dried wet cake) was dissolved in DCM/MeOH (3/1, v/v) and purified on silica gel column eluting with DCM/MeOH (3/1, v/v). The fractions containing Compound I was collected and passed through an in-line filter. Then Compound I was precipitated from DCM/MeOH via solvent-swap with MeOH (under vacuum with the jacket temperature of no more than 30C). After the DCM was distilled off, Compound I in MeOH was filtered and the wet cake was washed with methanol. The wet cake was vacuum dried at no more than 65° C. Then the dried Compound I, which existed in Polymorph E, was stirred in MeOH/PPW (3:1) and heated at about 60° C. to about 65° C. for 4 hours. Then the temperature was cooled down to 20° C. to 30° C. and stirred at that temperature for no longer than 1 hour. […] In the final heating step, if the mixture is heated for 6 hours instead of 4 hours, Polymorph A was observed.
It is believed that Polymorph K was transformed from Polymorph E under neutral conditions. […] Thus, without bound to be any theory, Polymorph K is believe to be a metastable form between Polymorphs E and A.

The subject of data set [2] is BRCA2 knockout tumor cells. The experiment in a line: Xenograft model, BRCA2 knockout vs isogenic wild type. In kind it is in vivo. Conditions: BRCA2 knockout tumor cells in xenograft model compared with isogenic wild type control cells.
Data set [3] relates to BRCA deficient cells. The experiment in a line: Toxicity against BRCA deficient cells. Type of data set: cell-based. Conditions: cell lines of different genetic backgrounds (colon, breast and ovary), mouse and human.
Data set [4] has as its system metastatic breast cancer. Description: Evaluation of predictive biomarkers of response to Compound I in patients. Type of data set: in vivo, human. Here is the method: The duration on therapy at each dose level for evaluable patients is depicted in FIG. 15. 18 patients were diagnosed with metastatic breast cancer. […] This study was conducted to evaluate predictive biomarkers of response to Compound I and to explore the relationship between germline HRD aberrations and outcomes of Compound I treatments.

Data set [5] can be described thus: Quick solubility analysis in pH 4.5 buffer. The following applies: pH 4.5 buffer solution (25 mM sodium acetate, 25° C.), filtered, LC, pH changed to 5-6. Type of data set: physicochemical. Here is the method:
A quick solubility analysis was conducted on Compound I Polymorphs A and J (Table 3). Each sample was suspended in pH 4.5 buffer solution (25 mM sodium acetate, 25° C.) for 10 minutes and then filtered for LC (liquid chromatography) analysis.

A short description of data set [6]: Polymorphic equilibrium and transformation study in MeOH/PPW at 65° C. (XRPD). In kind it is physicochemical. Here is the method: Polymorphic equilibrium studies were performed using Compound I Polymorph A and Compound I Polymorph J. To a 3-neck 250 mL flask equipped with a 3 cm stir bar and N2 inlet, a 1:1 mixture of Compound I Polymorph A (5 g) and Compound I Polymorph J (5 g, sample shown in FIG. 1), MeOH (112.5 mL, 11.25 vol) and purified process water (PPW, 37.5 mL, 3.75 vol) were charged. The resulting mixture was stirred at room temperature for 10 min, and then heated to 65° C. and sampled at 2 hrs, 4 hrs, and 6 hrs and analyzed by XRPD analysis as shown in FIG. 7.
A polymorphic transformation study was also performed. To a 20 mL vial containing a 2 cm stir bar, Compound I Polymorph J (0.5 g, sample shown in FIG. 1), MeOH (5.6 mL, 11.25 vol) and PPW (1.9 mL, 3.75 vol) were charged. The resulting mixture was heated to 65° C. for 6 hrs. Upon completion, the slurry was filtered through a Buchner funnel, and the solid was collected for XRPD analysis as shown in FIG. 8.
As described in Example 1, Polymorph J crystals precipitated out around pH 9-10 during final pH adjustment step to pH 12-13. Polymorph J is then heated to 60° C. to 65° C. in MeOH/PPW (3:1) for approximately 4 hours and maintains its polymorphic form. Thus, substantially pure (polymorphic purity) Polymorph J in MeOH/PPW (3:1) is stable at 65° C. for at least 4 hours.

Data set [7] can be described thus: Stability test at 25° C./60% RH for 18 months (XRPD, DSC). In kind it is physicochemical. How it is done:
Further, stability of Polymorph J was analyzed in solution having the composition:
Sample Preparation: 37.5 kg of WFI was added to the compounding vessel at a temperature in the range of 15 to 30° C. Vigorously sparge WFI with nitrogen for no less than 30 minutes by placing the nitrogen sparging tubing at the bottom of the pressure vessel. Continue sparging in the vessel until dissolved oxygen content was <1 ppm. In a second pressure vessel was added 20.0 kg nitrogen sparged WFI and sucrose and mixed until dissolved while continuing nitrogen sparging, not less than 15 minutes. Nitrogen sparging continued as necessary until dissolved oxygen content was <1 ppm of the sucrose solution. To the sucrose solution, 813.8 g of 2 M HCl solution was slowly added and mixed for no less than 10 minutes after addition was complete. Add Compound I into the sucrose solution vessel and rinse container that contained Compound I with nitrogen sparged WFI. Mix solution until dissolved (no less than 15 min). Add 43.5 mL of 2 M HCl and mix for no less than 5 minutes. If solution is not visually dissolved, add another portion of 43.5 mL of 2M HCl and mix for no less than 5 minutes. Adjust pH, if necessary to 4.4-4.6 with 2M HCl or 1M NaOH solution prepared using nitrogen sparged WFI. Mix solution after each addition of 2M HCl or 1M NaOH. Adjust volume with nitrogen-sparged WFI as necessary. Pull a 10 mL sample to measure pH. If necessary, re-adjust pH to 4.4-4.6 using 2M HCl or 1M NaOH solution prepared using nitrogen sparged WFI. Filtration and filling directly proceeded this step. No material was stored overnight. […]
Aseptic filling of the sterile solution: The Compound I sterile solution was filled into 20-cc clean, de-pyrogenated glass vials, with periodic weight checks to assure that the target fill quantity (5.05 g/vial) was maintained, and the vials were semi-stoppered with sterile elastomeric closures to provide the sample for stability analysis.
The sample was stored at 25° C. in 60% relative humidity (RH) for 18 months. After 18 months, the sample was analyzed by XRPD and DSC (see FIGS. 10 and 11).

Data set [8] is described as follows: Heating of Polymorph J without solvent at 205° C. In kind it is physicochemical. The following applies: 30 minutes.

SMILES strings stand for the structures. In brackets after ≈: the same amount, converted by molar mass.

`Cc1cnc(CNC(=O)c2c(=O)c3ccc(N4CCCN(C)CC4)nc3n3c2sc2ccccc23)cn1` [Polymorph K, 2-(4-Methyl-[1,4]diazepan-1-yl)-5-oxo-5H-7-thia-1,11b-diaza-benzo[c]fluorene-6-carboxylic acid (5-methyl-pyrazin-2-ylmethyl)-amide]: the “Polymorphic conversion upon prolonged heating” value in data set [1] is “converts to Polymorph A”.
As for `Cc1cnc(CNC(=O)c2c(=O)c3ccc(N4CCCN(C)CC4)nc3n3c2sc2ccccc23)cn1` [Compound I, 2-(4-Methyl-[1,4]diazepan-1-yl)-5-oxo-5H-7-thia-1,11b-diaza-benzo[c]fluorene-6-carboxylic acid (5-methyl-pyrazin-2-ylmethyl)-amide], the “Therapeutic index of activity” value in data set [2] is listed as “wide therapeutic index of activity”. In addition, in data set [3], the “Toxicity against BRCA deficient cells” value is on record as “specific toxicity against BRCA deficient cells”. In data set [4] (patient with PALB2 mutation and BRCA2 mutation, 650 mg/m^2 on Day 1, Day 8, Day 15 of a 28 day cycle), the Response to treatment entry was “partial response (PR)”. Besides, the Tumor shrinkage result in data set [4] (patients with BRCA2 mutation, dose greater than or equal to 150 mg/m^2) is recorded as “tumor shrinkage were observed”.
For `Cc1cnc(CNC(=O)c2c(=O)c3ccc(N4CCCN(C)CC4)nc3n3c2sc2ccccc23)cn1` [Polymorph A, 2-(4-Methyl-[1,4]diazepan-1-yl)-5-oxo-5H-7-thia-1,11b-diaza-benzo[c]fluorene-6-carboxylic acid (5-methyl-pyrazin-2-ylmethyl)-amide], the solubility (in general, the dissolved amount per volume that the medium holds) at 10 min in data set [5] (sodium acetate buffer, 25 °C, pH 4.5, aqueous buffer, thermodynamic from solid) turned out to be 29.3 mg/mL (≈ 57 mM). In data set [6] (MeOH/PPW, 65° C.), the “Relative thermodynamic stability of polymorphs” value is recorded as “more thermodynamically stable than Polymorph J”.
As for `Cc1cnc(CNC(=O)c2c(=O)c3ccc(N4CCCN(C)CC4)nc3n3c2sc2ccccc23)cn1` [Polymorph J, 2-(4-Methyl-[1,4]diazepan-1-yl)-5-oxo-5H-7-thia-1,11b-diaza-benzo[c]fluorene-6-carboxylic acid (5-methyl-pyrazin-2-ylmethyl)-amide], the Solubility (commonly the concentration that dissolves in the medium under given conditions) in data set [5] (10 minutes) amounted to 28.6 mg/mL (≈ 55.7 mM). The “Time stable on storage” value in data set [7] was “at least 18 months”. In addition, in data set [7] (18 months), the “Shift of second endothermic DSC peak after storage versus initial sample” value was “about 5 °C” and the “XRPD pattern after storage” value is reported as “substantially similar to the XRPD pattern of the initial sample”. The “Polymorphic form by XRPD after heating” value in data set [6] (MeOH/PPW, 65° C., 6 hrs) was “converted to Polymorph A”. The “Time polymorphic form is stable” value in data set [6] (substantially pure Polymorph J in MeOH/PPW (3:1) at 65° C.) is recorded as “at least 4 hours”. In addition, the “Crystallinity by XRPD after heating” value in data set [8] is recorded as “less crystalline”.
